Ki data for one compound are collected here from BindingDB's records for doi:10.1021/jm990200p (Synaptic Pharmaceutical, 1999).

In general, Ki refers to a measure of affinity in units of concentration, obtained from inhibition or displacement. Higher therefore signals a looser hold on the target.

The nature of the assay: In vitro binding affinity against Alpha-1A adrenergic receptor in isolated prostate tissue of dog.

`CCC1=C(C(N)=O)C(c2ccc(F)c(F)c2)N(C(=O)NCCCN2CCC(C(=O)OC)(c3ccccc3)CC2)C(=O)N1` (stereo unspecified) [1-(3-{[5-Carbamoyl-6-(3,4-difluoro-phenyl)-4-ethyl-2-oxo-3,6-dihydro-2H-pyrimidine-1-carbonyl]-amino}-propyl)-4-phenyl-piperidine-4-carboxylic acid methyl ester] had an inhibition constant Ki of 1.3 nM.
